Test results reported in patent US20230293526A1, “METHOD FOR TREATING CANCER WITH A REVERSE TRANSCRIPTASE INHIBITOR” (PrimeFour Therapeutics, Inc., priority 2020, published 2023).

Assays:
Assay in all cases: Cell proliferation Ex.3
Type in all cases: cell-based
786O = settings: Homo sapiens
Experimental: (§1) A dose response relationship on cell proliferation was assessed for Compound 13 on 140 tumor cell lines. […] Cells were cultured in the appropriate media. For the assays, cells were seeded in white cell culture-treated flat and clear bottom multiwell plates and incubated at 37° C. overnight before compound was added. […] on the medium, cell plates were equilibrated to room temperature for one hour, CellTiterGlo reagent (Promega) was added and luminescence was measured approximately an hour later using a luminometer. Raw data were converted into percent cell viability relative to the high and low control, which were set to 10000 and 000, respectively.

A204 = settings: Homo sapiens
Experimental: as §1

ACHN = settings: Homo sapiens
Experimental: as §1

CALU6 = settings: Homo sapiens, Calu-6
Experimental: as §1

CLS439 = tested on: CLS439
Experimental: as §1

DLD1 = settings: Homo sapiens, DLD-1
Experimental: as §1

HCT15 = settings: Homo sapiens, HCT-15
Experimental: as §1

HL-60 = settings: Homo sapiens
Experimental: as §1

IGROV1 = settings: Homo sapiens, IGROV-1
Experimental: as §1

IMR90 = settings: Homo sapiens, IMR-90
Experimental: as §1

JEG3 = settings: Homo sapiens, JEG-3
Experimental: as §1

JIMT1 = settings: Homo sapiens, JIMT-1
Experimental: as §1

KASUMI = tested on: KASUMI
Experimental: as §1

MDAMB435 = settings: Homo sapiens, MDA-MB-435
Experimental: as §1

MG63 = settings: Homo sapiens, MG-63
Experimental: as §1

MHHES1 = settings: Homo sapiens, MHH-ES-1
Experimental: as §1

MIAPACA2 = settings: Homo sapiens, MIA PaCa-2
Experimental: as §1

OVCAR4 = settings: Homo sapiens, OVCAR-4
Experimental: as §1

PLCPRF5 = settings: Homo sapiens, PLC-PRF-5
Experimental: as §1

SAOS2 = settings: Homo sapiens, SAOS-2
Experimental: as §1

SKMEL5 = settings: Homo sapiens, SK-MEL-5
Experimental: as §1

SW620 = settings: Homo sapiens, SW-620
Experimental: as §1

TE671 = settings: Homo sapiens, TE-671
Experimental: as §1

U87MG = settings: Homo sapiens, U-87 MG
Experimental: as §1

UMUC3 = settings: Homo sapiens
Experimental: as §1

WSU-NHL = settings: Homo sapiens
Experimental: as §1

How did the IC50 (786O; 786-0, 72 h) turn out when `C#C[C@]1(CO)O[C@@H](n2cc(F)c(N)nc2=O)C[C@@H]1O` [compound 9] was run?
The IC50 was greater than 10 µM.

And the IC50 (786O; 786-0, 120 h)?
The IC50 was greater than 10 µM.

And the IC50 (786O; 786-0, 168 h)?
The IC50 was greater than 10 µM.

What about the IC50 (A204; A204, 72 h) of the same compound?
Its IC50 is greater than 10 µM.

What about the IC50 (A204; A204, 120 h) of the same compound?
Its IC50 is greater than 10 µM.

And the IC50 (A204; A204, 168 h)?
The IC50 was greater than 10 µM.

What about the IC50 (ACHN; 72 h) of the same compound?
The IC50 was greater than 10 µM.

What about the IC50 (ACHN; 120 h) of the same compound?
Its IC50 is 0.91 µM.

And the IC50 (ACHN; 168 h)?
Its IC50 is 0.94 µM.

And the IC50 (CALU6; CALU6, 72 h)?
Its IC50 is greater than 10 µM.

And the IC50 (CALU6; CALU6, 120 h)?
The IC50 was greater than 10 µM.

And the IC50 (CALU6; CALU6, 168 h)?
The IC50 was greater than 10 µM.

What about the IC50 (CLS439; CLS439, 72 h) of the same compound?
The IC50 was greater than 10 µM.

And the IC50 (CLS439; CLS439, 120 h)?
Its IC50 is greater than 10 µM.

And the IC50 (CLS439; CLS439, 168 h)?
The IC50 was greater than 10 µM.

And the IC50 (DLD1; DLD1, 72 h)?
Its IC50 is greater than 10 µM.

What about the IC50 (DLD1; DLD1, 120 h) of the same compound?
The IC50 was greater than 10 µM.

What about the IC50 (DLD1; DLD1, 168 h) of the same compound?
Its IC50 is greater than 10 µM.

What about the IC50 (HCT15; HCT15, 72 h) of the same compound?
The IC50 was greater than 10 µM.

And the IC50 (HCT15; HCT15, 120 h)?
The IC50 was greater than 10 µM.

And the IC50 (HCT15; HCT15, 168 h)?
Its IC50 is greater than 10 µM.

What about the IC50 (HL-60; HL-60, 72 h) of the same compound?
The IC50 was greater than 10 µM.

And the IC50 (HL-60; HL-60, 120 h)?
The IC50 was greater than 10 µM.

What about the IC50 (HL-60; HL-60, 168 h) of the same compound?
Its IC50 is greater than 10 µM.

And the IC50 (IGROV1; IGROV1, 72 h)?
The IC50 was greater than 10 µM.

What about the IC50 (IGROV1; IGROV1, 120 h) of the same compound?
Its IC50 is greater than 10 µM.

What about the IC50 (IGROV1; IGROV1, 168 h) of the same compound?
Its IC50 is greater than 10 µM.

And the IC50 (IMR90; IMR90, 72 h)?
Its IC50 is greater than 10 µM.

And the IC50 (IMR90; IMR90, 120 h)?
Its IC50 is greater than 10 µM.

And the IC50 (IMR90; IMR90, 168 h)?
Its IC50 is greater than 10 µM.

And the IC50 (JEG3; JEG3, 72 h)?
Its IC50 is greater than 10 µM.

What about the IC50 (JEG3; JEG3, 120 h) of the same compound?
Its IC50 is greater than 10 µM.

And the IC50 (JEG3; JEG3, 168 h)?
The IC50 was greater than 10 µM.

What about the IC50 (JIMT1; JIMT1, 72 h) of the same compound?
Its IC50 is greater than 10 µM.

And the IC50 (JIMT1; JIMT1, 120 h)?
Its IC50 is greater than 10 µM.

What about the IC50 (JIMT1; JIMT1, 168 h) of the same compound?
Its IC50 is greater than 10 µM.

What about the IC50 (KASUMI; 72 h) of the same compound?
The IC50 was greater than 10 µM.

What about the IC50 (KASUMI; 120 h) of the same compound?
The IC50 was greater than 10 µM.

What about the IC50 (KASUMI; 168 h) of the same compound?
Its IC50 is greater than 10 µM.

And the IC50 (MDAMB435; MDAMB435, 72 h)?
The IC50 was greater than 10 µM.

And the IC50 (MDAMB435; MDAMB435, 120 h)?
The IC50 was greater than 10 µM.

What about the IC50 (MDAMB435; MDAMB435, 168 h) of the same compound?
Its IC50 is greater than 10 µM.

What about the IC50 (MG63; MG63, 72 h) of the same compound?
Its IC50 is greater than 10 µM.

What about the IC50 (MG63; MG63, 120 h) of the same compound?
Its IC50 is greater than 10 µM.

What about the IC50 (MG63; MG63, 168 h) of the same compound?
Its IC50 is greater than 10 µM.

And the IC50 (MHHES1; MHHES1, 72 h)?
Its IC50 is greater than 10 µM.

What about the IC50 (MHHES1; MHHES1, 120 h) of the same compound?
Its IC50 is greater than 10 µM.

And the IC50 (MHHES1; MHHES1, 168 h)?
The IC50 was greater than 10 µM.

And the IC50 (MIAPACA2; MIAPACA2, 72 h)?
Its IC50 is greater than 10 µM.

And the IC50 (MIAPACA2; MIAPACA2, 120 h)?
The IC50 was greater than 10 µM.

And the IC50 (MIAPACA2; MIAPACA2, 168 h)?
Its IC50 is greater than 10 µM.

What about the IC50 (OVCAR4; OVCAR4, 72 h) of the same compound?
The IC50 was greater than 10 µM.

And the IC50 (OVCAR4; OVCAR4, 120 h)?
Its IC50 is greater than 10 µM.

And the IC50 (OVCAR4; OVCAR4, 168 h)?
The IC50 was greater than 10 µM.

And the IC50 (PLCPRF5; PLCPRF5, 72 h)?
The IC50 was greater than 10 µM.

What about the IC50 (PLCPRF5; PLCPRF5, 120 h) of the same compound?
The IC50 was greater than 10 µM.

What about the IC50 (PLCPRF5; PLCPRF5, 168 h) of the same compound?
Its IC50 is greater than 10 µM.

What about the IC50 (SAOS2; SAOS2, 72 h) of the same compound?
Its IC50 is greater than 10 µM.

What about the IC50 (SAOS2; SAOS2, 120 h) of the same compound?
The IC50 was greater than 10 µM.

What about the IC50 (SAOS2; SAOS2, 168 h) of the same compound?
The IC50 was greater than 10 µM.

And the IC50 (SKMEL5; SKMEL5, 72 h)?
The IC50 was greater than 10 µM.

And the IC50 (SKMEL5; SKMEL5, 120 h)?
Its IC50 is greater than 10 µM.

And the IC50 (SKMEL5; SKMEL5, 168 h)?
Its IC50 is greater than 10 µM.

And the IC50 (SW620; SW620, 72 h)?
Its IC50 is greater than 10 µM.

And the IC50 (SW620; SW620, 120 h)?
Its IC50 is greater than 10 µM.

And the IC50 (SW620; SW620, 168 h)?
The IC50 was greater than 10 µM.

What about the IC50 (TE671; TE671, 72 h) of the same compound?
The IC50 was greater than 10 µM.

And the IC50 (TE671; TE671, 120 h)?
Its IC50 is greater than 10 µM.

What about the IC50 (TE671; TE671, 168 h) of the same compound?
Its IC50 is greater than 10 µM.

What about the IC50 (U87MG; 72 h) of the same compound?
The IC50 was greater than 10 µM.

And the IC50 (U87MG; 120 h)?
The IC50 was greater than 10 µM.

What about the IC50 (U87MG; 168 h) of the same compound?
The IC50 was greater than 10 µM.

What about the IC50 (UMUC3; UMUC3, 72 h) of the same compound?
Its IC50 is greater than 10 µM.

And the IC50 (UMUC3; UMUC3, 120 h)?
The IC50 was greater than 10 µM.

And the IC50 (UMUC3; UMUC3, 168 h)?
Its IC50 is greater than 10 µM.

And the IC50 (WSU-NHL; 72 h)?
The IC50 was 3.01 µM.

What about the IC50 (WSU-NHL; 120 h) of the same compound?
Its IC50 is 0.42 µM.

And the IC50 (WSU-NHL; 168 h)?
The IC50 was 0.87 µM.
